How the values were obtained:
Assay in all cases: DSF
Type in all cases: binding
MERTK = target: T1, MERTK (Homo sapiens, UniProt Q12866)
T1 construct: purchased in-house DSF panel (SGC Frankfurt)
T1 sequence (Q12866 570-864): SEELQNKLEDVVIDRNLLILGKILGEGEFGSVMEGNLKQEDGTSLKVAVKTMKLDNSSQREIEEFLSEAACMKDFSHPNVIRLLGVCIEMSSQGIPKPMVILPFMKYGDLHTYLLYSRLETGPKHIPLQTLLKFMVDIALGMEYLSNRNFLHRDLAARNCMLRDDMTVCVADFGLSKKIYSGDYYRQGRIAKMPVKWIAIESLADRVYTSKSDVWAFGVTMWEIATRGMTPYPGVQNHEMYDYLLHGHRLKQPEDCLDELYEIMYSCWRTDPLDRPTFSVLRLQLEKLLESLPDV
Protocol: (§1) Measurements were performed in duplicates.

FLT1 = target: T2, FLT1 (Homo sapiens, UniProt P17948)
T2 construct: purchased in-house DSF panel (SGC Frankfurt)
T2 sequence (P17948 801-1158): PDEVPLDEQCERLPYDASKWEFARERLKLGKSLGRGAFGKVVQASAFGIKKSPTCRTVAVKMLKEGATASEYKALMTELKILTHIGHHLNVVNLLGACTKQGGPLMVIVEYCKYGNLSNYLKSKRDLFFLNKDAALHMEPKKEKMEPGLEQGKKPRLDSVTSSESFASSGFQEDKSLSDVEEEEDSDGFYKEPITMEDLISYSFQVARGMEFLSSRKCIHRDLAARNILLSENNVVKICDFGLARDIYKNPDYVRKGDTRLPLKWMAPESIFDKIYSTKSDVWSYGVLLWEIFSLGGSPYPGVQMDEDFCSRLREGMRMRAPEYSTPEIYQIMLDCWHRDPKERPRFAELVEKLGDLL
Protocol: as §1

CDC42BPA = target: T3, CDC42BPA (Homo sapiens, UniProt Q5VT25)
T3 construct: purchased in-house DSF panel (SGC Frankfurt)
Protocol: as §1

WNK1 = target: T4, WNK1 (Homo sapiens, UniProt Q9H4A3)
T4 construct: purchased in-house DSF panel (SGC Frankfurt)
Protocol: as §1

STK10 = target: T5, STK10 (Homo sapiens, UniProt O94804)
T5 construct: purchased in-house DSF panel (SGC Frankfurt)
Protocol: as §1

EPHA7 = target: T6, EPHA7 (Homo sapiens, UniProt Q15375)
T6 construct: purchased in-house DSF panel (SGC Frankfurt)
Protocol: as §1

MAPK13 = target: T7, MAPK13 (Homo sapiens, UniProt O15264)
T7 construct: purchased in-house DSF panel (SGC Frankfurt)
T7 sequence (O15264 1-365): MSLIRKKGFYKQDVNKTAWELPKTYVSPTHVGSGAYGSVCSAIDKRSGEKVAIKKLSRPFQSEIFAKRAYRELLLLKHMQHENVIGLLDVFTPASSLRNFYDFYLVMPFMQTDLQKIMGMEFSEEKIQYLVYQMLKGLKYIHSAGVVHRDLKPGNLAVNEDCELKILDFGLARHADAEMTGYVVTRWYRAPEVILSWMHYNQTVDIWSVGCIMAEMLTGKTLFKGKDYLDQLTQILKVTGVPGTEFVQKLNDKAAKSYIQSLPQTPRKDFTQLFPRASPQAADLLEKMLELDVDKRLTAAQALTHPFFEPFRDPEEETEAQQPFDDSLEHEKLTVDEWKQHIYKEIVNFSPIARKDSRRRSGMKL
Protocol: as §1

MARK4 = target: T8, MARK4 (Homo sapiens, UniProt Q96L34)
T8 construct: purchased in-house DSF panel (SGC Frankfurt)
Protocol: as §1

PLK4 = target: T9, PLK4 (Homo sapiens, UniProt O00444)
T9 construct: purchased in-house DSF panel (SGC Frankfurt)
T9 sequence (O00444 2-275): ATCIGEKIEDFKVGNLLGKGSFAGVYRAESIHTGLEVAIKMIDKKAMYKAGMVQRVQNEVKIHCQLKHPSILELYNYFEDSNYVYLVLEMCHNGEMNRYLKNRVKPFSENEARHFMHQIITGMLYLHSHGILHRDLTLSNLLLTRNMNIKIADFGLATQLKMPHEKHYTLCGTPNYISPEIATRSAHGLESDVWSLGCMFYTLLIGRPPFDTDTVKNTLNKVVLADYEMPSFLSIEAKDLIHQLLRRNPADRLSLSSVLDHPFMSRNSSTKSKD
Protocol: as §1

MAP2K7 = target: T10, MAP2K7 (Homo sapiens, UniProt O14733)
T10 construct: purchased in-house DSF panel (SGC Frankfurt)
T10 sequence (O14733 120-380): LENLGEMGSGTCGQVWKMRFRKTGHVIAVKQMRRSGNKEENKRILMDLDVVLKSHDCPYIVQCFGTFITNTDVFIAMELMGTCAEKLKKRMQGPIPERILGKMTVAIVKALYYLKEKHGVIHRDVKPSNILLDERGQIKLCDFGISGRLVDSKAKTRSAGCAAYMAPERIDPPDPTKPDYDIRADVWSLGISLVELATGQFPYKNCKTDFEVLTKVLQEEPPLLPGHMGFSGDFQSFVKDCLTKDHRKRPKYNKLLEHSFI
Protocol: as §1

BMP2K = target: T11, BMP2K (Homo sapiens, UniProt Q9NSY1)
T11 construct: purchased in-house DSF panel (SGC Frankfurt)
Protocol: as §1

DAPK1 = target: T12, DAPK1 (Homo sapiens, UniProt P53355)
T12 construct: purchased in-house DSF panel (SGC Frankfurt)
Protocol: as §1

STK4 = target: T13, STK4 (Homo sapiens, UniProt Q13043)
T13 construct: purchased in-house DSF panel (SGC Frankfurt)
T13 sequence (Q13043 30-281): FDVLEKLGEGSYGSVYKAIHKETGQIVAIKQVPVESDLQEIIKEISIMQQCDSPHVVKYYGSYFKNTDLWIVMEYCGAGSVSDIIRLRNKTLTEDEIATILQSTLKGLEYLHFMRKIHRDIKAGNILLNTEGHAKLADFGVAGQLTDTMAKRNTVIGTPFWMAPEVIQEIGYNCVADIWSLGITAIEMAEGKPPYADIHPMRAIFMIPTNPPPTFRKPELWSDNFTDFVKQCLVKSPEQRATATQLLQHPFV
Protocol: as §1

SLK = target: T14, SLK (Homo sapiens, UniProt Q9H2G2)
T14 construct: purchased in-house DSF panel (SGC Frankfurt)
Protocol: as §1

STK3 = target: T15, STK3 (Homo sapiens, UniProt Q13188)
T15 construct: purchased in-house DSF panel (SGC Frankfurt)
T15 sequence (Q13188 16-313): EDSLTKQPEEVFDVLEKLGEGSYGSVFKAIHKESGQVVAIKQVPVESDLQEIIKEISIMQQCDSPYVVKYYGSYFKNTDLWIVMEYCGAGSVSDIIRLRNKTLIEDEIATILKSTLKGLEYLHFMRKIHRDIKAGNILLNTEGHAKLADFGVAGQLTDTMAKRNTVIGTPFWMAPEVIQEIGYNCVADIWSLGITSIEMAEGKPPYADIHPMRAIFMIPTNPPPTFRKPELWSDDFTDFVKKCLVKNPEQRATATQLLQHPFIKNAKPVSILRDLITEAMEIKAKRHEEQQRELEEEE
Protocol: Recombinant protein kinase domains with a concentration of 2 μM were mixed with a 10 μM compound solution in DMSO, 20 mM HEPES, pH 7.5, and 500 mM NaCl. SYPRO Orange (5000×, Invitrogen) was added as a fluorescence probe (1 µl per mL). Subsequently, temperature-dependent protein unfolding profiles were measured, using the QuantStudio™ 5 realtime PCR machine (Thermo Fisher, Waltham, MA, USA). […] The temperature was raised with a step rate of 3 °C per minute. Data points were analyzed with the internal software (Thermal Shift SoftwareTM Version 1.4, Thermo Fisher) using the Boltzmann equation to determine the inflection point of the transition curve [56]. Differences in melting temperature are given as ΔTm values in °C. Measurements were performed in duplicates.

T5 sequence (O94804 18-317): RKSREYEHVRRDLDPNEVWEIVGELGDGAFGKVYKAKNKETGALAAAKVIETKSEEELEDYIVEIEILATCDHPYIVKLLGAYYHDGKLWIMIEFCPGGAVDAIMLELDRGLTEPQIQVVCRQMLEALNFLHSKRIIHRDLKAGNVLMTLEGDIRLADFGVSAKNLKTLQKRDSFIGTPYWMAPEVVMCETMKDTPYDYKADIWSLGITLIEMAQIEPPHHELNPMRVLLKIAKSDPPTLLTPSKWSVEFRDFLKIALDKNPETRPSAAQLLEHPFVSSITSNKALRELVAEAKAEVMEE
T11 sequence (Q9NSY1 38-345): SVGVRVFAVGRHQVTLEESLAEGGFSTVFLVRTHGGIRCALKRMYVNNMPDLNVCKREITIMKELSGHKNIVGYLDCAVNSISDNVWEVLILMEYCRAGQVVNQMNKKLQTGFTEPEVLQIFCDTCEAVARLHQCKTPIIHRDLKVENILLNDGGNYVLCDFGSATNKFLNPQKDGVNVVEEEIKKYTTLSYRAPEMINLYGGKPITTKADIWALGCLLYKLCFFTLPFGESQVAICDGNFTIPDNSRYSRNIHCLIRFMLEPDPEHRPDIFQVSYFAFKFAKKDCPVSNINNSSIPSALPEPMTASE
T12 sequence (P53355 1-285): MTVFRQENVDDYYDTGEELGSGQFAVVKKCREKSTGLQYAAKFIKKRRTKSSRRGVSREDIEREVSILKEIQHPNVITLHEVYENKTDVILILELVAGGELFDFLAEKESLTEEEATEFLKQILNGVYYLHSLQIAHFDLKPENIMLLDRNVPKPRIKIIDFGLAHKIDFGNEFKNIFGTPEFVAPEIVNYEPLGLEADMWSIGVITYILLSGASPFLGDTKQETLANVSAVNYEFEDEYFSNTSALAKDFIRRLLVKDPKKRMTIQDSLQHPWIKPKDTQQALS
T8 sequence (Q96L34 59-310): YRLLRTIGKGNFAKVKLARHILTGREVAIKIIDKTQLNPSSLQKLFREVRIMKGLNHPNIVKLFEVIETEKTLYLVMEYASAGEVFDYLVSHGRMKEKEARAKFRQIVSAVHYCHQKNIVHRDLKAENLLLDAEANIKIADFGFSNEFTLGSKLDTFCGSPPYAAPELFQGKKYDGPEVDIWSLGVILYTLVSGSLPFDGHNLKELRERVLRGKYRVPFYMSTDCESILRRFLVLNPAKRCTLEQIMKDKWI
T3 sequence (Q5VT25 1-414): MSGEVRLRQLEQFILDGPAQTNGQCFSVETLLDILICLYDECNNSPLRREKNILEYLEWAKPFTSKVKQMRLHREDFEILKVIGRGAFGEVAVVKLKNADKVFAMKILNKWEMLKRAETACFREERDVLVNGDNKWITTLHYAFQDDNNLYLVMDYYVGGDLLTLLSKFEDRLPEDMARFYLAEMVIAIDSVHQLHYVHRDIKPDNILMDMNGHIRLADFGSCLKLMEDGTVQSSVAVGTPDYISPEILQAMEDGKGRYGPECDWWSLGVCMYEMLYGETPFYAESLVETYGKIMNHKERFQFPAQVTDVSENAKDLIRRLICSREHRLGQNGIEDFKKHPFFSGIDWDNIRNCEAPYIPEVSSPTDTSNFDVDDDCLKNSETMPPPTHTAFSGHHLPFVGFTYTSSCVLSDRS
T6 sequence (Q15375 590-899): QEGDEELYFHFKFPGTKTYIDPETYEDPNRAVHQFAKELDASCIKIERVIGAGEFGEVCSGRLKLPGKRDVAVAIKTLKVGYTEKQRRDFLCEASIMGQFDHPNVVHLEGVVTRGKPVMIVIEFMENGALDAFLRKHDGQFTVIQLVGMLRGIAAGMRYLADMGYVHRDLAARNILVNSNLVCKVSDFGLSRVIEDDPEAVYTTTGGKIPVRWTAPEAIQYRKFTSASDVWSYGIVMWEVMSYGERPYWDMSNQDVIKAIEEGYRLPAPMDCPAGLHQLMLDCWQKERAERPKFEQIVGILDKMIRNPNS
T4 sequence (Q9H4A3 206-483): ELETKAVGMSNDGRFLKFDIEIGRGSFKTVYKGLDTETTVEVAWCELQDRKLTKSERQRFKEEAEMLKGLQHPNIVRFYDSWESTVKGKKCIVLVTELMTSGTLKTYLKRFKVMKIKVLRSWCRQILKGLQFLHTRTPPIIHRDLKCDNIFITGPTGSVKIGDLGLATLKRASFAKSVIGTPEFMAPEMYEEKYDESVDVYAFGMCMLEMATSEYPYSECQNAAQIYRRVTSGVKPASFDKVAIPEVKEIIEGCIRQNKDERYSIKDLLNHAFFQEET

| Compound | ΔTm MERTK (MERTK) [°C] | ΔTm FLT1 (FLT1) [°C] | ΔTm CDC42BPA (CDC42BPA) [°C] | ΔTm WNK1 (WNK1) [°C] | ΔTm STK10 (STK10) [°C] | ΔTm EPHA7 (EPHA7) [°C] | ΔTm MAPK13 (MAPK13) [°C] | ΔTm MARK4 (MARK4) [°C] | ΔTm PLK4 (PLK4) [°C] | ΔTm MAP2K7 (MAP2K7) [°C] | ΔTm BMP2K (BMP2K) [°C] | ΔTm DAPK1 (DAPK1) [°C] | ΔTm STK4 (STK4) [°C] | ΔTm SLK (SLK) [°C] | ΔTm STK3 (STK3) [°C] |
| --- | --- | --- | --- | --- | --- | --- | --- | --- | --- | --- | --- | --- | --- | --- | --- |
| CN[C@@H]1C[C@H]2O[C@@](C)([C@@H]1OC)n1c3ccccc3c3c4c(c5c6ccccc6n2c5c31)C(=O)NC4 [staurosporine, reference compound] | 6.6 | 13.6 | 2.8 | 0.9 | 23.3 | 10.3 | 7.5 | 16.4 | 16.0 | 8.4 | 19.1 | 9.8 | 14.9 | 18.0 | 16.6 |
| COC(=O)c1cc(Nc2ccnc(NCCOCCNC(=O)OC(C)(C)C)n2)[nH]n1 [21d, methyl 5-((2-((2-(2-((tert-butoxycarbonyl)amino)ethoxy)ethyl)amino)pyrimidin-4-yl)amino)-1H-pyrazole-3-carboxylate] | 1.9 | 2.0 | 0.5 | 0.9 | -0.7 | 1.3 | 0.5 | 1.7 | 3.0 | 0.7 | 5.7 | -2.4 | 1.6 | 1.0 | 1.6 |
| N#CCc1ccc(Nc2nccc(Nc3cc(C4CC4)[nH]n3)n2)cc1 [compound 1, reference compound] | 4.4 | 10.6 | -0.1 | 1.1 | 10.1 | 4.9 | 8.0 | 8.2 | 11.1 | 12.0 | 18.8 | 4.9 | 9.6 | 8.8 | 11.6 |
| CC(C)(C)OC(=O)Nc1ccc(CNc2nccc(Nc3cc(C(=O)OC(C)(C)C)[nH]n3)n2)cc1 [43d, tert-butyl 3-((2-((4-((tert-butoxycarbonyl)amino)benzyl)amino)pyrimidin-4-yl)amino)-1H-pyrazole-5-carboxylate] | -0.8 | 0.9 | -0.8 | -0.1 | -0.8 | -3.4 | 1.3 | -0.5 | 5.5 | -3.0 | 1.7 | -0.4 | -0.2 | 0.1 | 0.3 |
| COC(=O)c1cc(Nc2ccnc(NCc3ccc(NC(=O)OC(C)(C)C)cc3)n2)[nH]n1 [21i, methyl 5-((2-((4-((tert-butoxycarbonyl)amino)benzyl)amino)pyrimidin-4-yl)amino)-1H-pyrazole-3-carboxylate] | -0.1 | 2.2 | -0.5 | 0.6 | -0.7 | 0.6 | 1.0 | 3.3 | 4.1 | 0.5 | 2.8 | 0.6 | 2.2 | 0.2 | 1.2 |
| CC(C)OC(=O)c1cc(Nc2ccnc(NCc3ccc(NC(=O)OC(C)(C)C)cc3)n2)n[nH]1 [42d, isopropyl 3-((2-((4-((tert-butoxycarbonyl)amino)benzyl)amino)pyrimidin-4-yl)amino)-1H-pyrazole-5-carboxylate] | -0.8 | 0.6 | -0.7 | 0.1 | -0.7 | -3.1 | 1.0 | 0.3 | 3.7 | -0.3 | 1.4 | -0.3 | -0.5 | -0.6 | -1.0 |
